Patent publication US20260297542A1, “HERBICIDE RESISTANT PLANTS” (SYNGENTA CROP PROTECTION AG, priority 2023, published 2026)
Changes are numbered by the printed parent chain.

Experiments:
[1] = target: T1, AtPPO1 S305L V365M (SEQ ID NO.128) (Arabidopsis thaliana, UniProt P55826, S305L/V365M); test: fluorescent Protoporphyrinogen Oxidase assay, crude extract; type: biochemical; details: read-out: percentage inhibition
T1 construct: made in house; host or cells: E. coli BL21 (DE3) hemG, crude extract
T1 sequence (P55826 35-537 S305L/V365M): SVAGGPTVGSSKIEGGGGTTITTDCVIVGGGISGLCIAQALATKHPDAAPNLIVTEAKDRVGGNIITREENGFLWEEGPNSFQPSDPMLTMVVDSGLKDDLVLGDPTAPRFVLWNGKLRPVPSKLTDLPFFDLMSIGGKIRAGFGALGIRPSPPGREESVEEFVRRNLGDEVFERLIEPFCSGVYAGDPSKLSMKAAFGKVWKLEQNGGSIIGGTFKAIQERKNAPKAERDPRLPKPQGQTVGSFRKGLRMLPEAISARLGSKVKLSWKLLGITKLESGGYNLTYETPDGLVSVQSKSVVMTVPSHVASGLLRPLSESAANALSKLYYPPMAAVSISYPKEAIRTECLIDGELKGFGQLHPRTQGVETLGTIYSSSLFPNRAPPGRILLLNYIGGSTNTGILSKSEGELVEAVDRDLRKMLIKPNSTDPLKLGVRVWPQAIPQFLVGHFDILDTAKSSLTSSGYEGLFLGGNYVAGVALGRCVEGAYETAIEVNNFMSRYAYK

[2] = target: T2, AtPPO1 V365L G404A L479N (SEQ ID NO.136) (Arabidopsis thaliana, UniProt P55826, G404A/L479N/V365L); test: as above; type: biochemical; details: read-out: percentage inhibition
T2 construct: made in house; host or cells: E. coli BL21 (DE3) hemG, crude extract
T2 sequence (P55826 35-537 V365L/G404A/L479N): T1 sequence (P55826 35-537 S305L/V365M) with L271S, M331L, G370A, L445N

SMILES | inhibition at 0.1 ppm [1] [%] | inhibition at 1 ppm [1] [%] | inhibition at 10 ppm [1] [%] | inhibition at 100 ppm [1] [%] | inhibition at 0.1 ppm [2] [%] | inhibition at 1 ppm [2] [%] | inhibition at 10 ppm [2] [%] | inhibition at 100 ppm [2] [%]
CCOC(=O)[C@]1(C)CC(c2cc(-n3c(=O)n(C)c(=S)n(C)c3=O)c(F)cc2Cl)=NO1 [Herbicide D, ethyl (5S)-3-[2-chloro-5-(3,5-dimethyl-2,6-dioxo-4-thioxo-1,3,5-triazinan-1-yl)-4-fluoro-phenyl]-5-methyl-4H-isoxazole-5-carboxylate] | 51 | 84 | 96 | 100 | 4 | 75 | 99 | 100
CCOC(=O)C1(C)CC(c2cc(-n3c(=O)cc(C(F)(F)F)n(C)c3=O)c(F)cc2Cl)=NO1 (stereo not shown) [Herbicide C, 3-(2-chloro-4-fluoro-5-(3-methyl-2,6-dioxo-4-trifluoromethyl-3,6-dihydropyrimidin-1(2H)-yl)phenyl)-5-methyl-4,5-dihydroisoxazole-5-carboxylic acid ethyl ester] | 45 | 76 | 95 | 100 | 34 | 90 | 99 | 100
CCOC(=O)COc1ncccc1Oc1cc(-n2c(=O)cc(C(F)(F)F)n(C)c2=O)c(F)cc1Cl [Herbicide A, epyrifenacil] | 41 | 64 | 92 | 91 | 58 | 95 | 100 | 100
C#CCN1C(=O)C(F)(F)Oc2cc(F)c(-n3c(=O)n(C)c(=S)n(C)c3=O)cc21 [Herbicide B, trifludimoxazin] | 100 | 97 | 95 | 100 | 79 | 100 | 100 | 100
CC(C)N(C)S(=O)(=O)NC(=O)c1cc(-n2c(=O)cc(C(F)(F)F)n(C)c2=O)c(F)cc1Cl [Herbicide E, saflufenacil] | 0 | 71 | 91 | 100 | 0 | 39 | 86 | 100
